According to the supplement of paper PMC11061612:

How the values were obtained:
[1] = system: IA-LM (Non-Small Cell Lung Carcinoma); experiment: combination Emax (second highest fraction inhibited in the dose matrix, 72 h); higher = more inhibition; extreme values may be limits of the assay
Outline: (§1)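 Cell lines in DMEM/F12 or RPMI with 10% FBS were plated in 1536-well plates, held 24 hours at 37°C, 5% CO2, then given two-drug dose matrices for 72 hours (DMSO typically 0.2%). Viability was read by CellTiter-Glo 2.0 luminescence and scaled as inhibition from 0 (vehicle wells) to 1 (blank wells). Combination Emax is the second-highest inhibition in the matrix; Bliss excess is observed combination effect minus expected EA + EB − EA·EB, EA and EB being single-agent effects.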

[2] = system: IST-MEL1 (Melanoma); experiment: as above
Outline: as §1

[3] = system: Raji (Burkitt's Lymphoma); experiment: as above
Outline: as §1

[4] = system: NCI-H1963 (Small Cell Lung Carcinoma); experiment: Bliss excess, mean over the matrix (fraction); higher = more synergy
Outline: as §1

[5] = system: NCI-H596 (Other Solid Carcinomas); experiment: as above
Outline: as §1

[6] = system: C-33-A (Cervical Carcinoma); experiment: as above
Outline: as §1

[7] = system: TUR (Acute Myeloid Leukemia); experiment: as above
Outline: as §1

[8] = system: T84 (Colorectal Carcinoma); experiment: as above
Outline: as §1

[9] = system: BHT-101 (Thyroid Gland Carcinoma); experiment: as above
Outline: as §1

[10] = system: MONO-MAC-6 (Acute Myeloid Leukemia); experiment: as above
Outline: as §1

[11] = system: SCC-4 (Oral Cavity Carcinoma); experiment: as above
Outline: as §1

[12] = system: ES6 (Ewing's Sarcoma); experiment: as above
Outline: as §1

[13] = system: KP-4 (Pancreatic Carcinoma); experiment: as above
Outline: as §1

[14] = system: MOLT-13 (T-Lymphoblastic Leukemia); experiment: as above
Outline: as §1

[15] = system: SiHa (Cervical Carcinoma); experiment: as above
Outline: as §1

[16] = system: SNU-407 (Colorectal Carcinoma); experiment: as above
Outline: as §1

[17] = system: OVCAR-3 (Ovarian Carcinoma); experiment: as above
Outline: as §1

[18] = system: SAT (Head and Neck Carcinoma); experiment: as above
Outline: as §1

[19] = system: KALS-1 (Glioblastoma); experiment: as above
Outline: as §1

[20] = system: LS-1034 (Colorectal Carcinoma); experiment: as above
Outline: as §1
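Wherever Bliss excess, mean over the matrix is given: after 72 h of two-drug dosing.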

SMILES	combination Emax [1]	combination Emax [2]	combination Emax [3]	Bliss excess [4]	Bliss excess [5]	Bliss excess [6]	Bliss excess [7]	Bliss excess [8]	Bliss excess [9]	Bliss excess [10]	Bliss excess [11]	Bliss excess [12]	Bliss excess [13]	Bliss excess [14]	Bliss excess [15]	Bliss excess [16]	Bliss excess [17]	Bliss excess [18]	Bliss excess [19]	Bliss excess [20]
CN(CCO)CC[C@H](CSc1ccccc1)Nc1ccc(S(=O)(=O)NC(=O)c2ccc(N3CCC([C@@H](O)c4ccccc4-c4ccc(Cl)cc4)CC3)cc2)cc1S(=O)(=O)C(F)(F)F [AZD4320] + Cc1cc2ncnn2cc1Nc1ncc2c(n1)n(C1CCOCC1)c(=O)n2C [AZD7648] (first compound max 1 µM, 7x7, partner max 10 µM)	0.488	0.415	0.202	0.0483	-0.0422	-0.0164	0.0088	-0.0314	-0.0361	0.0106	-0.0568	-0.0494	-0.0578	0.0309	-0.0385	0.0313	-0.0521	-0.0621	-0.0096	-0.0403
C=CCn1c(=O)c2cnc(Nc3ccc(N4CCN(C)CC4)cc3)nc2n1-c1cccc(C(C)(C)O)n1 [AZD1775] + C[C@@H]1COCCN1C2=NC(=NC(=C2)C3(CC3)[S@](=N)(=O)C)C4=C5C=CNC5=NC=C4 [AZD6738] (first compound max 1 µM, partner max 10 µM)	0.446	0.797	0.937	0.036	0.0323	0.0554	0.0657	0.0084	0.0094	0.0178	-0.0248	0.0509	0.031	0.0735	0.0019	0.0031	0.113	-0.0229	0.0058	0.0097
NC1(C(=O)N[C@@H](CCO)c2ccc(Cl)cc2)CCN(c2ncnc3[nH]ccc23)CC1 [Capivasertib] + CC(C)n1c(=O)n(C)c2cnc3cc(F)c(-c4ccc(OCCCN5CCCCC5)nc4)cc3c21 [AZD1390] (first compound max 10 µM, 7x7, partner max 0.3 µM)	0.263	0.359	0.185	-0.0615	-0.143	-0.0383	-0.0704	-0.0417	-0.0197	-0.0262	-0.045	-0.0981	-0.0546	-0.037	-0.046	-0.0261	-0.0438	-0.0275	-0.054	-0.0447
COc1nnc2ccc(N3CCC(c4ccc(OCCN5CCN(C)C(=O)[C@H]5C)cc4)CC3)nn12 [AZD5153] + CCN(CCO)CCCOc1ccc2c(Nc3cc(CC(=O)Nc4cccc(F)c4)[nH]n3)ncnc2c1 [AZD2811] (first compound max 1 µM, 7x7, partner max 1 µM)	0.401	0.289	0.558	-0.0585	-0.0612	0.0198	0.131	-0.0536	-0.0257	0.0519	-0.109	-0.0476	-0.0849	-0.008	0.0047	-0.0476	-0.0394	-0.0368	-0.0911	-0.046
NC1(C(=O)N[C@@H](CCO)c2ccc(Cl)cc2)CCN(c2ncnc3[nH]ccc23)CC1 [Capivasertib] + Cn1cnc2c(F)c(Nc3ccc(Br)cc3Cl)c(C(=O)NOCCO)cc21 [Selumetinib] (first compound max 10 µM, 7x7, partner max 10 µM)	0.374	0.584	0.192	0.0023	0.0182	0.0513	0.0879	-0.0598	0.081	0.0394	0.042	-0.0397	0.0084	0.0339	-0.0081	0.026	-0.0223	0.0768	0.0079	-0.0123
Cn1cnc2c(F)c(Nc3ccc(Br)cc3Cl)c(C(=O)NOCCO)cc21 [Selumetinib] + C[C@@H]1COCCN1C2=NC(=NC(=C2)C3(CC3)[S@](=N)(=O)C)C4=C5C=CNC5=NC=C4 [AZD6738] (first compound max 10 µM, 7x7, partner max 10 µM)	0.287	0.74	0.722	0.0735	-0.0333	0.0486	0.0151	0.1	-0.0174	-0.0052	-0.0352	-0.043	-0.0712	0.106	0.0006	0.1	-0.0202	0.0782	-0.0479	-0.0316
